Laboratory results as given in patent US11076595B2, “1-(n,n-disubstituted carbamoyl) 4-(substituted sulfonyl)triazolin-5-one derivative, 4-(n,n-disubstituted carbamoyl) 1-(substituted sulfonyl)triazolin-5-one derivative, and herbicide containing said derivative as active ingredient” (HOKKO CHEMICAL INDUSTRY CO., LTD., priority 2017, dated 2021).

Experiments:
Format in all cases: in vivo
Monochoria vaginalis [1] = test: Test Example 11: herbicidal effect test by soil treatment in paddy field; conditions: 120 g/10a active ingredient, 14 days after treatment
Procedure, shortened: (§1)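 Puddled paddy soil with N:P:K 17:17:17 fertilizer in Wagner pots; 30 seeds per species sown at 0–1 cm, flooded to about 3 cm, kept in a glass greenhouse. Water-diluted emulsifiable concentrate dripped in immediately after sowing at 120 g a.i. per 10 are. Suppression from dry weight versus untreated at 14 days.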

Lindernia pyxidaria [2] = test: as above; conditions: 120 g/10a active ingredient, 14 days after treatment
Procedure, shortened: as §1

Scirpus juncoides [3] = test: as above; conditions: 120 g/10a active ingredient, 14 days after treatment
Procedure, shortened: as §1

Echinochloa crus-galli [4] = test: as above; conditions: 120 g/10a active ingredient, 14 days after treatment
Procedure, shortened: as §1

Chenopodium album [5] = test: Test Example 14: herbicidal effect test by foliage treatment in upland field; conditions: 7 days after sowing, 120 g/10a, 14 days after treatment
Procedure, shortened: (§2)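 Emulsifiable concentrate, water-diluted, is applied post-emergence to 7-day-old sowings in field soil at 120 g active ingredient per 10 are. The weed suppression rate derives from average dry weights versus untreated controls, measured 14 days later.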

crabgrass [6] = test: as above; conditions: 7 days after sowing, 120 g/10a, 14 days after treatment
Procedure, shortened: as §2

Monochoria vaginalis [7] = test: Test Example 12: herbicidal effect test by treatment during growing period in paddy field; conditions: 120 g/10a; treatment seven days after sowing in flooded paddy pot; assessed 14 days after treatment
Procedure, shortened: (§3)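 Puddled paddy soil in Wagner pots, 30 seeds per species sown 0-1 cm deep, flooded to about 3 cm in a greenhouse. Seven days after sowing, water-diluted emulsifiable concentrate was dripped in at 120 g active ingredient per 10 are. Suppression (%) from dry weight versus untreated at 14 days, two replicates.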

Lindernia pyxidaria [8] = test: as above; conditions: 120 g/10a; treatment seven days after sowing in flooded paddy pot; assessed 14 days after treatment
Procedure, shortened: as §3

Scirpus juncoides [9] = test: as above; conditions: 120 g/10a; treatment seven days after sowing in flooded paddy pot; assessed 14 days after treatment
Procedure, shortened: as §3

Echinochloa crus-galli [10] = test: as above; conditions: 120 g/10a; treatment seven days after sowing in flooded paddy pot; assessed 14 days after treatment
Procedure, shortened: as §3

Chenopodium album [11] = test: Test Example 13: herbicidal effect test by soil treatment in upland field; conditions: 120 g/10a, 14 days after treatment
Method: (§4) A pot having a size of 36 cm^2 was filled with field soil (alluvial soil) and after mixing the soil of the surface layer of 1 cm with 20 grains of each weed seed of crabgrass, Echinochloa crus-galli, Chenopodium album and Amaranthus viridis, the surface layer was pressed lightly. One day after the sowing, an emulsifiable concentrate prepared according to Formulation Example 15 by using the compound shown in Table 11 below was diluted with water, and the water-diluted formulation was sprayed on the soil surface at a ratio of 100 liter per 10 are. The application rate of the active ingredient, by conversion, corresponded to 120 g per 10 are. Fourteen Days after the formulation treatment, the herbicidal effect was evaluated by the same criteria as in Test Example 11.

crabgrass [12] = test: as above; conditions: 120 g/10a, 14 days after treatment
Method: as §4

Echinochloa crus-galli [13] = test: as above; conditions: 120 g/10a, 14 days after treatment
Method: as §4

Amaranthus viridis [14] = test: as above; conditions: 120 g/10a, 14 days after treatment
Method: as §4

Echinochloa crus-galli [15] = test: Test Example 14: herbicidal effect test by foliage treatment in upland field; conditions: 7 days after sowing, 120 g/10a, 14 days after treatment
Procedure, shortened: as §2

Amaranthus viridis [16] = test: as above; conditions: 7 days after sowing, 120 g/10a, 14 days after treatment
Procedure, shortened: as §2

SMILES | Weed suppression rate (%) Monochoria vaginalis (Monochoria vaginalis [1]) | Weed suppression rate (%) Lindemia pyxidaria (Lindernia pyxidaria [2]) | Weed suppression rate (%) Scirpus juncoides (Scirpus juncoides [3]) | Weed suppression rate (%) Echinochloa crus-galli (Echinochloa crus-galli [4]) | herbicidal effect, Chenopodium album (Chenopodium album [5]) | herbicidal effect, Crabgrass (crabgrass [6]) | Weed suppression rate (%) Monochoria vaginalis (Monochoria vaginalis [7]) | Weed suppression rate (%) Lindemia pyxidaria (Lindernia pyxidaria [8]) | Weed suppression rate (%) Scirpus juncoides (Scirpus juncoides [9]) | Weed suppression rate (%) Echinochloa crus-galli (Echinochloa crus-galli [10]) | herbicidal effect, Chenopodium album (Chenopodium album [11]) | herbicidal effect, Crabgrass (crabgrass [12]) | herbicidal effect, Echinochloa crus-galli (Echinochloa crus-galli [13]) | herbicidal effect, Amaranthus viridis (Amaranthus viridis [14]) | herbicidal effect, Echinochloa crus-galli (Echinochloa crus-galli [15]) | herbicidal effect, Amaranthus viridis (Amaranthus viridis [16])
CC(C)N(C(=O)n1cnn(S(C)(=O)=O)c1=O)c1ccccc1 [Compound 11-1] | 80% | 80% | 90% | 90% | 80% | 90% | 80% | 80% | 90% | 90% | 80% | 90% | 80% | 90% | 80% | 90%
CC(C)N(C(=O)n1cnn(S(C)(=O)=O)c1=O)c1cccc(F)c1F [Compound 11-11] | 100% | 100% | 100% | 100% | 70% | 100% | 100% | 80% | 100% | 100% | 30% | 90% | 80% | 30% | 100% | 60%
CC(C)N(C(=O)n1cnn(S(C)(=O)=O)c1=O)c1ccc(F)cc1F [Compound 11-12] | 100% | 100% | 100% | 100% | 90% | 90% | 90% | 100% | 90% | 100% | 90% | 100% | 100% | 100% | 90% | 80%
CC(C)N(C(=O)n1cnn(S(C)(=O)=O)c1=O)c1c(F)cccc1F [Compound 11-14] | 80% | 100% | 90% | 100% | 30% | 100% | 80% | 80% | 100% | 100% | 60% | 100% | 100% | 70% | 100% | 30%
CC(C)N(C(=O)n1cnn(S(C)(=O)=O)c1=O)c1c(F)cc(F)cc1F [Compound 11-16] | 90% | 100% | 90% | 100% | 70% | 100% | 100% | 90% | 100% | 100% | 70% | 100% | 100% | 100% | 100% | 30%
CC(C)N(C(=O)n1cnn(S(C)(=O)=O)c1=O)c1ccc(F)cc1Cl [Compound 11-19] | 80% | 80% | 90% | 90% | 80% | 90% | 80% | 80% | 90% | 90% | 80% | 90% | 80% | 90% | 80% | 90%
Cc1ccc(N(C(=O)n2cnn(S(C)(=O)=O)c2=O)C(C)C)c(F)c1 [Compound 11-26] | 80% | 80% | 90% | 90% | 80% | 90% | 80% | 80% | 90% | 90% | 80% | 90% | 80% | 90% | 80% | 90%
CC(C)N(C(=O)n1cnn(S(=O)(=O)c2c(F)c(F)c(F)c(F)c2F)c1=O)c1ccc(F)cc1Cl [Compound 11-818] | 100% | 100% | 100% | 100% |  |  | 100% | 80% | 100% | 100% | 60% | 100% | 100% | 60% |  | 
CC(C)N(C(=O)n1cnn(S(=O)(=O)Cc2ccccc2)c1=O)c1ccc(F)cc1F [Compound 11-944] | 100% | 100% | 90% | 90% |  |  | 90% | 90% | 90% | 90% | 0% | 90% | 90% | 0% |  | 
CC(C)N(C(=O)n1cnn(S(=O)(=O)c2cccs2)c1=O)c1cccc(F)c1F [Compound 11-1021] | 100% | 100% | 100% | 100% |  |  | 90% | 80% | 100% | 100% | 70% | 100% | 90% | 70% |  | 
CC(C)N(C(=O)n1cnn(S(=O)(=O)c2cccs2)c1=O)c1c(F)cccc1F [Compound 11-1024] | 70% | 80% | 80% | 100% |  |  | 90% | 80% | 90% | 100% | 60% | 100% | 70% | 60% |  | 
